Experimental data as given in patent US20240108740A1, “THERAPEUTIC COMPOSITIONS INCLUDING SPN10 AND USES THEREOF” (Stealth BioTherapeutics Inc., priority 2022, published 2024).
Residues, ends and D or L forms follow the SMILES beside them.

How the values were obtained:
[1] = system: Isolated guinea pig hearts; test: Example 15: organ preservation in cardioplegic solution; conditions: added to cardioplegic solution; 90 minutes ischemia, 60 minutes reperfusion
Method: Isolated guinea pig hearts will be perfused in a retrograde fashion with an oxygenated Krebs-Henseleit solution at 34° C. After 30 minutes of stabilization, the hearts will be perfused with a cardioplegic solution (CPS; St. Thomas) alone or in the presence of peptide conjugates (100 nM); aromatic-cationic peptides (an equivalent molar dose of aromatic-cationic peptide based on the concentration of the aromatic-cationic peptide administered in the peptide conjugate treatment group); SPN10(s) (an equivalent molar dose of SPN10 based on the concentration of SPN10 administered in the peptide conjugate treatment group); or SPN10(s) in combination with aromatic-cationic peptides (e.g., an equivalent molar dose of SPN10 based on the concentration of SPN10 administered in the peptide conjugate treatment group and an equivalent molar dose of aromatic-cationic peptide based on the concentration of aromatic-cationic peptide administered in the peptide conjugate treatment group) for 3 minutes. Global ischemia will then be induced by complete interruption of coronary flow and maintained for 90 minutes. Reperfusion will be performed for 60 minutes with oxygenated Krebs-Henseleit solution. Contractile force, heart rate, and coronary flow will be monitored continuously throughout the procedure.

[2] = system: hind limb casted mice; test: Hind limb immobilization (casting) induced skeletal muscle atrophy; assay type: in vivo, mouse
Method: 2. […] Casted mice will receive an i.p. injection of saline vehicle (0.3 mL), peptide conjugate, aromatic-cationic peptide, SPN10, or SPN10 with aromatic-cationic peptides. A control group of untreated mice will be also used in this experiment.
Subjects will receive s.c. injections of saline vehicle (0.3 mL) or the peptide conjugate, aromatic-cationic peptide or SPN10 (alone or in combination with aromatic-cationic peptides) (1.5 mg/kg for the peptide conjugate and equivalent molar doses of aromatic-cationic peptide and/or SPN10 based on concentration of the aromatic-cationic peptide or SPN10 administered in the peptide conjugate group) administered once daily during the immobilization period.
Immobilization. Mice will be anesthetized with gaseous isoflurane (3% induction, 0.5-2.5%) maintenance). Anesthetized animals will be cast-immobilized bilaterally with the ankle joint in the plantar-flexed position to induce maximal atrophy of the soleus and plantaris muscle. Both hind limbs and the caudal fourth of the body will be encompassed by a plaster cast. A thin layer of padding will be placed underneath the cast in order to prevent abrasions. In addition, to prevent the animals from chewing on the cast, one strip of fiberglass material will be applied over the plaster. The mice will be monitored on a daily basis for chewed plaster, abrasions, venous occlusion, and problems with ambulation.
Preparation of permeabilized muscle fibers. Permeabilized muscle fibers will be prepared as previously described. Korshunov, et al., FEBS Lett 416:15-18, 1997; Tonkonogi, et al., Pfliigers Arch 446:261-269, 2003. Briefly, the muscle will be trimmed of connective tissue and cut down to fiber bundles (4-8 mg wet wt). Under a microscope and using a pair of extra-sharp forceps, the muscle fibers will be gently separated in ice-cold buffer X containing 60 mM K-MES, 35 mM KCl, 7.23 mM K2EGTA, 2.77 mM CaK2EGTA, 20 mM imidazole, 0.5 mM DTT, 20 mM taurine, 5.7 mM ATP, 15 mM PCr, and 6.56 mM MgCl2·6 H2O (pH 7.1, 295 mosmol/kg H2O) to maximize surface area of the fiber bundle. To permeabilize the myofibers, each fiber bundle will be incubated in ice-cold buffer X containing 50 μg/mL saponin on a rotator for 30 minutes at 4° C. The permeabilized bundles will be washed in ice-cold buffer Z, containing 110 mM K-MES, 35 mM KCl, 1 mM EGTA, 5 mM K2HPO4, and 3 mM MgCl2, 0.005 mM glutamate, and 0.02 mM malate and 0.5 mg/mL BSA, pH 7.1.
Mitochondrial respiration in permeabilized fibers. Respiration will be measured polarographically in a respiration chamber maintained at 37° C. (Hansatech Instruments, United Kingdom). After the respiration chamber will be calibrated, permeabilized fiber bundles will be incubated with 1 mL of respiration buffer Z containing 20 mM creatine to saturate creatine kinase (Saks, et al., Mol. Cell Biochem. 184:81-100, 1998; Walsh, et al., J. Physiol. 537:971-978,2001). Flux through complex I will be measured using 5 mM pyruvate and 2 mM malate. The maximal respiration (state 3), defined as the rate of respiration in the presence of ADP, will be initiated by adding 0.25 mM ADP to the respiration chamber. Basal respiration (state 4) will be determined in the presence of 10 µg/mL oligomycin to inhibit ATP synthesis. The respiratory control ratio (RCR) will be calculated by dividing state 3 by state 4 respiration.
Mitochondrial ROS production. Mitochondrial ROS production will be determined using Amplex™ Red (Molecular Probes, Eugene, OR, U.S.A.). The assay will be performed at 37° C. in 96-well plates using succinate as the substrate. Superoxide dismutase (SOD) will be added at 40 units/mL to convert all superoxide into H2O2. Resorufin formation (Amplex™ Red oxidation by H2O2) will be monitored at an excitation wavelength of 545 nm and an emission wavelength of 590 nm using a multi-well plate reader fluorometer (SpectraMax, Molecular Devices, Sunnyvale, CA, U.S.A.). […]

## N=C(N)NCCC[C@H](NC(=O)[C@@H](N)Cc1c[nH]c2ccccc12)C(=O)N[C@@H](Cc1c[nH]c2ccccc12)C(=O)N[C@@H](CCCCN)C(N)=O [SPN10, H-L-Trp-L-Arg-L-Trp-L-Lys-NH2] (H-WRWK-NH2)
[1]
  contractile function after prolonged ischemia: significantly enhance contractile function
[2]; casting
  oxidative damage in soleus muscle, lipid peroxidation via 4-hydroxynonenal (4-HNE): overcome
  protease activity in the soleus muscle: attenuated or prevented
[2]; casting for 7 days
  increase in H2O2 production by mitochondria isolated from soleus muscle: prevented
[2]; hind limb casting for 7 days
  decrease in soleus muscle weight and mitochondrial state 3 respiration: reversed
[2]; mouse, in vivo
  calpain-1, caspase-3 and caspase-12 proteolytic degradation of muscle: prevented
  oxidative damage and associated muscle weakness induced by hind limb immobilization: prevent
